A short description of the test: Binding affinity for 5-hydroxytryptamine 2C receptor.

pIC50: −log10 of the molar value.

The compound `CN1CCN(c2nc3sccc3n3cccc23)CC1` gave a pIC50 of 6.45.

For the origin of these results see BindingDB's records for doi:10.1021/jm950543x (University of Caen Normandy, 1996).
